What all share (assay): inhibition of tumour cell growth, NCI panel, 48 h
The subject of test [1] is NCI-H522 lung.
In test [2] the test system is OVCAR-8 ovarian.
Test [3] deals with SW-620 colon.
The test system of test [4] is SNB-75 CNS.
For test [5], the system named is T-47D breast.
The subject of test [6] is A498 renal.
Test [7] relates to HCC-2998 colon.
Test [8] concerns DU-145 prostate.
Test [9] has as its system NCI-H460 lung.
The subject of test [10] is UACC-257 melanoma.

Values joined by “and” are separate entries in the source; they are usually repeats but may differ in a detail not shown here. Identical values can stand only once.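 Test compounds were applied to cells in 96-well plates for 48 hours at 5 doses. Here, GI50 denotes the concentration required for 50% inhibition of growth. TGI is the concentration that stops growth completely.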

On to `CC(C)(C)NC(C1=CC(C)(C)c2ccccc2C1=O)c1ccccc1` (centres undefined), for which the GI50 in [1] is 1.1 µM; in test [2], 1.74 µM; in [3], 1.53 µM; in test [4], 1.02 µM; in [5] it was 1.12 µM; in test [6], 1.87 µM. In addition, the GI50 in test [7] is 1.66 µM; in test [8] it was 1.55 µM; in test [9], 1.93 µM; in [10], 1.42 µM. For the same compound, the TGI worked out at 2.41 µM in [1]; 4.19 µM in [2]; 2.92 µM in test [3]; 2.57 µM in test [4]; 2.55 µM in test [5]; 6.37 µM in [6]. The TGI in test [7] worked out at 3.1 µM; in test [8], 3.24 µM; in test [9] it was 4.58 µM; in test [10] it was 2.94 µM.

As to `C[C@@H]1CN(C(=O)c2ccc(NC(=O)c3cc(O[C@H](C)c4c(Cl)ccc(F)c4Cl)c(N)nn3)cc2)C[C@H](C)N1`, the GI50 is 3.1 µM in [1]; 7.16 µM in test [2]; 2.29 µM in test [3]; 2.8 µM in test [4]; 4.51 µM in test [5]; 1 µM in test [6]. The GI50 was 14.5 µM in test [7], 6.7 µM in [8], 3.1 µM in test [9] and 1.39 µM in test [10]. The TGI in test [1] was 12.2 µM; in test [2] it was 19.7 µM; in [3], 12.6 µM; in [4], 11.1 µM; in test [5], 20.5 µM; in [6], 5.33 µM. Besides, the TGI in test [7] is 29.1 µM; in test [8], 19.2 µM; in test [9], 13.7 µM; in test [10], 3.2 µM.

For the compound `Cc1nn(-c2nc3ccccc3s2)c(C)c1Oc1ccccc1O`, the GI50 in test [1] is 5.4 µM; in test [2], 8.04 µM; in [3], 4.79 µM; in test [4], 1.73 µM; in test [5] it was 8.63 µM; in test [6], 11.4 µM. The GI50 in test [7] was 5.73 µM; in test [8], 7.17 µM; in test [9], 0.654 µM; in [10], 3.64 µM. Moreover, the TGI in [1] was found to be 28.9 µM; in test [2], 25.8 µM; in [3] it was 17.6 µM; in test [4], 24.3 µM; in test [5], 34.4 µM; in test [6] it was 23.6 µM. Besides, the TGI worked out at 18.9 µM in test [7], 20.1 µM in [8], 16.3 µM in test [9] and 14.7 µM in [10].

For `Nc1nc(N)c(N=O)c(Nc2ccc(O)cc2)n1`, the TGI in [1] was greater than 56.6 µM; in test [2], greater than 100 µM; in test [3] it was greater than 100 µM; in test [4] it was greater than 67.7 µM; in test [5], greater than 96.1 µM; in [6], greater than 85.1 µM. Besides, the TGI in [7], in test [8], in test [9] and in test [10] was greater than 100 µM each time.

In the case of `O=C(CN1CCN(c2ncnc3ccccc23)CC1)Nc1ccc(Cl)cc1C(=O)c1ccccc1Cl`, the GI50 in test [1] is 0.258 µM; in [2] it was 1.28 µM; in test [3], 0.662 µM; in test [4] it was 0.434 µM; in [5], 0.339 µM; in [6] it was 1.5 µM. The GI50 in test [7] is 1.79 µM; in test [8], 0.368 µM; in test [9], 0.598 µM; in [10], 2.04 µM. Also, the TGI was 1.55 µM in test [1]; greater than 30.9 µM in test [2]; 7.54 µM in test [3]; 1.48 µM in test [4]; 3.25 µM in test [5]; 3.69 µM in [6]. Besides, the TGI in [7] came to 4.96 µM; in test [8], 12 µM; in test [9] it was 11.6 µM; in [10], 6.69 µM.

On to `COC(=O)NC1C(C)OC(OC2C/C=C(/C)C3C=CC4C(OC5CC(OC6CC(O)C(OC7CC(O)C(OC)C(C)O7)C(C)O6)C(O)C(C)O5)C(C)CC(C)C4C3(C)/C(O)=C3\C(=O)OC4(CC(C)C(CO)=CC4/C=C\2C)C3=O)CC1(C)[N+](=O)[O-]` (centres undefined), for which the TGI in [1] is 11.7 µM and 22.7 µM; in test [2], 20.7 µM and 32.3 µM; in test [3], 19.7 µM and 35.2 µM; in [4], 33.5 µM and 46.2 µM; in [5], 31.8 µM; in [6], 22.8 µM and 29.8 µM. The TGI in test [7] was 31.6 µM; in [8], 27.5 µM; in test [9], 18.4 µM and 30.5 µM; in test [10], 16.4 µM and 29.4 µM. The GI50 in test [4] is 11 µM; in test [6] it was 9.82 µM; in [9], 8.33 µM; in test [10], 8.28 µM.

The values above are taken from PubChem BioAssay (NCI).
